Data published in the NIST ThermoML archive (doi:10.1016/j.fluid.2009.04.009).
Numbers after ± are expanded uncertainties.

Assay: xn = mol fraction of the nth substance listed
Conditions: Liquid, Single crystal variable path ultrasonic interferometer operating at 2 MHz

CO [methanol] + CN(C)C=O
Conditions | speed of sound [m/s]
303 K, Frequency=2 MHz / Mass density=771.9 kg/m3, x2 = 0 | 1089 ± 0.5
308 K, Frequency=2 MHz / Mass density=764.7 kg/m3, x2 = 0 | 1069.6 ± 0.4
313 K, Frequency=2 MHz / Mass density=757.4 kg/m3, x2 = 0 | 1057.2 ± 0.4
318 K, Frequency=2 MHz / Mass density=750 kg/m3, x2 = 0 | 1033.2 ± 0.5
323 K, Frequency=2 MHz / Mass density=718.6 kg/m3, x2 = 0 | 1008 ± 0.3

CN(C)C=O [dimethylformamide] + CO
Conditions | speed of sound [m/s]
303 K, Frequency=2 MHz / Mass density=801.17 kg/m3, x1 = 0.4 | 1201.2 ± 0.4
303 K, Frequency=2 MHz / Mass density=818.7 kg/m3, x1 = 0.2 | 1133.8 ± 0.3
303 K, Frequency=2 MHz / Mass density=853.8 kg/m3, x1 = 0.6 | 1249.2 ± 0.3
303 K, Frequency=2 MHz / Mass density=888.88 kg/m3, x1 = 0.8 | 1339.4 ± 0.5
303 K, Frequency=2 MHz / Mass density=953.21 kg/m3, x1 = 1 | 1469.8 ± 0.8
308 K, Frequency=2 MHz / Mass density=794.11 kg/m3, x1 = 0.4 | 1187.4 ± 0.4
308 K, Frequency=2 MHz / Mass density=811.76 kg/m3, x1 = 0.2 | 1126.8 ± 0.3
308 K, Frequency=2 MHz / Mass density=852.94 kg/m3, x1 = 0.6 | 1243.4 ± 0.4
308 K, Frequency=2 MHz / Mass density=888.23 kg/m3, x1 = 0.8 | 1320 ± 0.3
308 K, Frequency=2 MHz / Mass density=952.94 kg/m3, x1 = 1 | 1433.2 ± 0.6
313 K, Frequency=2 MHz / Mass density=786.98 kg/m3, x1 = 0.4 | 1169.2 ± 0.4
313 K, Frequency=2 MHz / Mass density=798.81 kg/m3, x1 = 0.2 | 1110.8 ± 0.4
313 K, Frequency=2 MHz / Mass density=846.15 kg/m3, x1 = 0.6 | 1219.4 ± 0.5
313 K, Frequency=2 MHz / Mass density=881.65 kg/m3, x1 = 0.8 | 1313.2 ± 0.4
313 K, Frequency=2 MHz / Mass density=952.66 kg/m3, x1 = 1 | 1418 ± 0.4
318 K, Frequency=2 MHz / Mass density=773.8 kg/m3, x1 = 0.4 | 1152 ± 0.4
318 K, Frequency=2 MHz / Mass density=785.71 kg/m3, x1 = 0.2 | 1097.7 ± 0.2
318 K, Frequency=2 MHz / Mass density=833.33 kg/m3, x1 = 0.6 | 1208 ± 0.3
318 K, Frequency=2 MHz / Mass density=875 kg/m3, x1 = 0.8 | 1275.4 ± 0.5
318 K, Frequency=2 MHz / Mass density=952.38 kg/m3, x1 = 1 | 1402.2 ± 0.5
323 K, Frequency=2 MHz / Mass density=754.49 kg/m3, x1 = 0.4 | 1136 ± 0.3
323 K, Frequency=2 MHz / Mass density=778.44 kg/m3, x1 = 0.2 | 1095.4 ± 0.3
323 K, Frequency=2 MHz / Mass density=803.35 kg/m3, x1 = 0.6 | 1189 ± 0.3
323 K, Frequency=2 MHz / Mass density=868.26 kg/m3, x1 = 0.8 | 1257.2 ± 0.4
323 K, Frequency=2 MHz / Mass density=952.09 kg/m3, x1 = 1 | 1374.8 ± 0.6
